Tests used:
Assay in all cases: radiolabelled solute uptake in cRNA-injected oocytes
Type in all cases: cell-based
Details in all cases: MBS buffer, 1 mM solute, 10 min, room temperature; labelled compound
DrAqp10b = molecular target: T1, DrAqp10b (Danio rerio, UniProt Q1L8T0)
T1 construct: gene aqp10b; full-length cDNA in pT7Ts, untagged, cRNA-injected Xenopus laevis oocytes
T1 sequence (Q1L8T0 1-276): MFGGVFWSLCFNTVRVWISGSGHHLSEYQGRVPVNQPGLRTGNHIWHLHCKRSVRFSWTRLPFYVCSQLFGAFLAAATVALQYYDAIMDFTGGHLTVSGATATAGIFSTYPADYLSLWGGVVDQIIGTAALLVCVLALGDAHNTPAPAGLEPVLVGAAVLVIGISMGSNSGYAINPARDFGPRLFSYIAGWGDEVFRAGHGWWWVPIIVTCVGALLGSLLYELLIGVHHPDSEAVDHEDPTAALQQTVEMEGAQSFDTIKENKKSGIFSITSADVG

DrAqp3b = molecular target: T2, DrAqp3b (Danio rerio, UniProt D3TI80)
T2 construct: gene aqp3b; full-length cDNA in pT7Ts, untagged, cRNA-injected Xenopus laevis oocytes
T2 sequence (D3TI80 1-299): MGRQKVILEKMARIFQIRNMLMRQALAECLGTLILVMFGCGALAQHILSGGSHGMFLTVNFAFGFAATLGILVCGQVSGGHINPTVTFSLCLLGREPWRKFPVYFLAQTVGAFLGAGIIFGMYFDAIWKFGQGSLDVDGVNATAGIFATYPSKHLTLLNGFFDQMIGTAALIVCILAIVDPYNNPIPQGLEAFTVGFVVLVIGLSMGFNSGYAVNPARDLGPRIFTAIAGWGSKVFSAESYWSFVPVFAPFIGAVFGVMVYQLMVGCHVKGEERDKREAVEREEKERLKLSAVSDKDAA

DrAqp9b = molecular target: T3, DrAqp9b (Danio rerio, UniProt D5FFZ1)
T3 construct: gene aqp9b; full-length cDNA in pT7Ts, untagged, cRNA-injected Xenopus laevis oocytes; FJ655387 is printed for both 9a and 9b
T3 sequence (D5FFZ1 1-291): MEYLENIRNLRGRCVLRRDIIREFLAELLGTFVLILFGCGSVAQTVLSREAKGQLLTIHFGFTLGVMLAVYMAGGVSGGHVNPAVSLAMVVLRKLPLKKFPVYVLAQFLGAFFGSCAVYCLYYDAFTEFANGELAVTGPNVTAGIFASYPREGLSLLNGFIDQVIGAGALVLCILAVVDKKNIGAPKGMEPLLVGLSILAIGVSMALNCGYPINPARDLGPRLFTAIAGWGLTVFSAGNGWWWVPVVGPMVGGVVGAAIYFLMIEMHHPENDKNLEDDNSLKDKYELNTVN

DrAqp9a = molecular target: T4, DrAqp9a (Danio rerio, UniProt Q498W2)
T4 construct: gene aqp9a; full-length cDNA in pT7Ts, untagged, cRNA-injected Xenopus laevis oocytes
T4 sequence (Q498W2 1-294): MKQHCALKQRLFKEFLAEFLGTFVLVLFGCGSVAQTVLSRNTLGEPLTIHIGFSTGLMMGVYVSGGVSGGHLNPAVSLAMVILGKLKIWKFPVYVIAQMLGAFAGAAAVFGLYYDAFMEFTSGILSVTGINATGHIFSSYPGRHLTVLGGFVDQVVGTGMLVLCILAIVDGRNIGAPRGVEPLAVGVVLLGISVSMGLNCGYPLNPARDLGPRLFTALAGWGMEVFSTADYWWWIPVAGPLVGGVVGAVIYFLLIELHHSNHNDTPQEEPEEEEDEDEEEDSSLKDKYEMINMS

DrAqp3a = molecular target: T5, DrAqp3a (Danio rerio, UniProt Q803U6)
T5 construct: gene aqp3a; full-length cDNA in pT7Ts, untagged, cRNA-injected Xenopus laevis oocytes
T5 sequence (Q803U6 1-296): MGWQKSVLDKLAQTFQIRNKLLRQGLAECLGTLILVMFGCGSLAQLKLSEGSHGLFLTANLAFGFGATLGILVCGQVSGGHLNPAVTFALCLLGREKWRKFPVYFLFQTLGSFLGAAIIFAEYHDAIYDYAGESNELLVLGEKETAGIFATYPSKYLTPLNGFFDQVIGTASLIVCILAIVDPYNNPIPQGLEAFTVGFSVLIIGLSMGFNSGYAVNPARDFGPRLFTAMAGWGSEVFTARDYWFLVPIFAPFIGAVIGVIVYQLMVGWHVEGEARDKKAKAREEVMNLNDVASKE

DrAqp10a = molecular target: T6, DrAqp10a (Danio rerio, UniProt A0A8M1N0C8)
T6 construct: gene aqp10a; full-length cDNA in pT7Ts, untagged, cRNA-injected Xenopus laevis oocytes
T6 sequence (A0A8M1N0C8 1-293): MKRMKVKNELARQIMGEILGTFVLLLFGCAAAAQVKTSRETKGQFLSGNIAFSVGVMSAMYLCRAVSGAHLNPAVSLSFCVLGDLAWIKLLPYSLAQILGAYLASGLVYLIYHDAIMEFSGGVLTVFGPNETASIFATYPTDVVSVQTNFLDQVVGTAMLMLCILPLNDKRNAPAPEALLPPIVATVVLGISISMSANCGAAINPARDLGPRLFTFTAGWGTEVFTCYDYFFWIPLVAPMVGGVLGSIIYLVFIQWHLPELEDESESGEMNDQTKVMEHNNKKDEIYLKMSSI

DrAqp7 = molecular target: T7, DrAqp7 (Danio rerio, UniProt D3TZW4)
T7 construct: gene aqp7; full-length cDNA in pT7Ts, untagged, cRNA-injected Xenopus laevis oocytes
T7 sequence (D3TZW4 1-303): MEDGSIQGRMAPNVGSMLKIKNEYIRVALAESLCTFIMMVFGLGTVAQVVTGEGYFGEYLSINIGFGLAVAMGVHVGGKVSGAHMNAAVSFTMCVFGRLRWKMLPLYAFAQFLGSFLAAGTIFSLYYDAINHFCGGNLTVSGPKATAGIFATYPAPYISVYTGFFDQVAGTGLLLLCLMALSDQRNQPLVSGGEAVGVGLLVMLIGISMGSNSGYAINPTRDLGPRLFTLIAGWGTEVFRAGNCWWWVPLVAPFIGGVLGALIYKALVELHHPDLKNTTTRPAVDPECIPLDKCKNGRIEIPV

DrAqp8aa = molecular target: T8, DrAqp8aa (Danio rerio, UniProt Q66I64)
T8 construct: gene aqp8a.1; full-length cDNA in pT7Ts, untagged, cRNA-injected Xenopus laevis oocytes
T8 sequence (Q66I64 1-260): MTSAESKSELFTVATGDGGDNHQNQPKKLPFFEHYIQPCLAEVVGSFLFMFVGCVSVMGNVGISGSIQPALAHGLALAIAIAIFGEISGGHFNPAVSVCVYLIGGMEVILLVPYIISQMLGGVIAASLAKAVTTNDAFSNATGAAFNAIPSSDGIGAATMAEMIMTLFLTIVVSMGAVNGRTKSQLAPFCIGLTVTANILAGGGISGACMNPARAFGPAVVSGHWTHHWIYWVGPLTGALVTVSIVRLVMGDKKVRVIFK

DrAqp8ab = molecular target: T9, DrAqp8ab (Danio rerio, UniProt A0A8N1TQ94)
T9 construct: gene aqp8a.2; full-length cDNA in pT7Ts, untagged, cRNA-injected Xenopus laevis oocytes
T9 sequence (A0A8N1TQ94 1-257): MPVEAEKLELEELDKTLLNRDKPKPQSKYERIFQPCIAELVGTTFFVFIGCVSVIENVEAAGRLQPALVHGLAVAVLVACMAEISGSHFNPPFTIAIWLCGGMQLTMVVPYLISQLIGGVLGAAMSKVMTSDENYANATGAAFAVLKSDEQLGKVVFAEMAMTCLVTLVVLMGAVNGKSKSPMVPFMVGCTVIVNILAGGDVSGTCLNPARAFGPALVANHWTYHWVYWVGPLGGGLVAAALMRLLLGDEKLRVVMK

SMILES	radiolabelled solute uptake in cRNA-injected oocytes (DrAqp10b)	radiolabelled solute uptake in cRNA-injected oocytes (DrAqp3b)	radiolabelled solute uptake in cRNA-injected oocytes (DrAqp9b)	radiolabelled solute uptake in cRNA-injected oocytes (DrAqp9a)	radiolabelled solute uptake in cRNA-injected oocytes (DrAqp3a)	radiolabelled solute uptake in cRNA-injected oocytes (DrAqp10a)	radiolabelled solute uptake in cRNA-injected oocytes (DrAqp7)	radiolabelled solute uptake in cRNA-injected oocytes (DrAqp8aa)	radiolabelled solute uptake in cRNA-injected oocytes (DrAqp8ab)
OCC(O)CO [glycerol]	draqp3a, -3b, -7, -9a, -9b, -10a and -10b were also permeable to glycerol and urea	draqp3a, -3b, -7, -9a, -9b, -10a and -10b were also permeable to glycerol and urea	draqp3a, -3b, -7, -9a, -9b, -10a and -10b were also permeable to glycerol and urea	draqp3a, -3b, -7, -9a, -9b, -10a and -10b were also permeable to glycerol and urea	draqp3a, -3b, -7, -9a, -9b, -10a and -10b were also permeable to glycerol and urea	draqp3a, -3b, -7, -9a, -9b, -10a and -10b were also permeable to glycerol and urea	draqp3a, -3b, -7, -9a, -9b, -10a and -10b were also permeable to glycerol and urea	–	–
NC(N)=O [urea]	in the case of draqp10b urea permeability was low	draqp3a, -3b, -7, -9a, -9b, -10a and -10b were also permeable to glycerol and urea	draqp3a, -3b, -7, -9a, -9b, -10a and -10b were also permeable to glycerol and urea	draqp3a, -3b, -7, -9a, -9b, -10a and -10b were also permeable to glycerol and urea	draqp3a, -3b, -7, -9a, -9b, -10a and -10b were also permeable to glycerol and urea	draqp3a, -3b, -7, -9a, -9b, -10a and -10b were also permeable to glycerol and urea	draqp3a, -3b, -7, -9a, -9b, -10a and -10b were also permeable to glycerol and urea	Oocytes expressing draqp8aa or -8ab were permeable to water and urea, but not glycerol	Oocytes expressing draqp8aa or -8ab were permeable to water and urea, but not glycerol

From paper PMC2829555, “The zebrafish genome encodes the largest vertebrate repertoire of functional aquaporins with dual paralogy and substrate specificities similar to mammals” (BMC Evolutionary Biology, 2010)
